From patent US5854204A, “Aβ peptides that modulate β-amyloid aggregation” (priority 1996, dated 1998)

Key:
[1] = target: T1, Aβ1-40 (Homo sapiens, UniProt P05067); settings: for ΔLag (ratio of lag time with test compound to lag time of control): Table V, 100 mole % inhibitor relative to Aβ1-40;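 as to all read-outs here: Aβ nucleation assay tracking fiber polymerization from monomer by turbidity (light scattering), shaken continuously in 96-well plates, read every 15 min over 5 h, compared with compound-free control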
[2] = target: T1, Aβ1-40; assay: biochemical; settings: read-out: % Inucl'n (percent reduction in maximum turbidity)
[3] = target: T1, Aβ1-40; assay: Seeded extension assay (thioflavin T fluorescence); type: biochemical; set-up: Natural β-AP (β-AP1-40) was obtained commercially from Bachem (Torrance, Calif.); purchased Bachem (Torrance, Calif.); settings: Table V; 25 mole % inhibitor
Description: The seeded extension assay can be employed to measure the rate of Aβ fiber formed in a solution of Aβ monomer following addition of polymeric Aβ fiber "seed". The ability of test compounds to prevent further deposition of monomeric Aβ to previously deposited amyloid is determined using a direct indicator of β-sheet formation using fluorescence. In contrast with the nucleation assay, the addition of seed provides immediate nucleation and continued growth of preformed fibrils without the need for continuous mixing, and thus results in the absence of a lag time before polymerization starts. Since this assay uses static polymerization conditions, the activity of positive compounds in the nucleation assay can be confirmed in this second assay under different conditions and with an additional probe of amyloid structure.
Samples of the solution are then diluted in thioflavin T (Th-T). The polymer-specific association of Th-T with Aβ produces a fluorescent complex that allows the measurement of the extent of fibril formation (Levine, H. (1993) Protein Science 2:404-410). In particular, association of Th-T with aggregated β-AP, but not monomeric or loosely associated β-AP, gives rise to a new excitation (ex) maximum at 450 nm and an enhanced emission (em) at 482 nm, compared to the 385 nm (ex) and 445 nm (em) for the free dye. Small aliquots of the polymerization mixture contain sufficient fibril to be mixed with Th-T to allow the monitoring of the reaction mixture by repeated sampling. A linear growth curve is observed in the presence of excess monomer. The formation of thioflavin T responsive β-sheet fibrils parallels the increase in turbidity observed using the nucleation assay.
To prepare the stock seed, 1 ml of the Aβ monomer preparation, is incubated for approximately 8 days at 37° C. and sheared sequentially through an 18, 23, 26 and 30 gauge needle 25, 25, 50, and 100 times respectively. 2 μl samples of the sheared material is taken for fluorescence measurements after every 50 passes through the 30 gauge needle until the fluorescence units (FU) plateau (approx. 100-150×). Test compounds are prepared by dissolving an appropriate amount of test compound in 1× PBS to a final concentration of 1 mM (10× stock). If insoluble, the compound is dissolved in 1/10 volume of DMSO and diluted in 1× PBS to 1 mM. A further 1/10 dilution is also prepared to test each candidate at both 100 μM and 10 μM.
To perform the seeded extension assay, each sample is set up with 50 μl of 200 μM monomer, 125 FU sheared seed (a variable quantity dependent on the batch of seed, routinely 3-6 μl) and 10 μl of 10× modulator solution. The sample volume is then adjusted to a final volume of 100 μl with 1× PBS. Two concentrations of each modulator typically are tested: 100 μM and 10 μM, equivalent to a 1:1 and a 1:10 molar ratio of monomer to modulator. The controls include an unseeded reaction to confirm that the fresh monomer contains no seed, and a seeded reaction in the absence of any modulators, as a reference to compare against candidate modulators. The assay is incubated at 37° C. for 6 h, taking 2 μl samples hourly for fluorescence measurements. To measure fluorescence, a 2 μl sample of Aβ is added to 400 μl of Thioflavin-T solution (50 mM Potassium Phosphate […] pH 7.5). The samples are vortexed and the fluorescence is read in a 0.5 ml micro quartz cuvette at EX 450 nm and EM 482 nm (Hitachi 4500 Fluorimeter).
The modulators were evaluated in the nucleation and seeded extension assays described in Example 6 and the results are summarized below in Table V. The change in lag time (ΔLag) is presented as the ratio of the lag time observed in the presence of the test compound to the lag time of the control. […] Inhibition (% Inucl'n) is listed as the percent reduction in the maximum observed turbidity in the control at the end of the assay time period. […]

[4] = target: Aβ peptide (Homo sapiens, UniProt P05067); settings: Camilleri et al. (1994); cited from earlier work
[5] = target: T2, natural β-AP (β-AP1-40) (Homo sapiens, UniProt P05067); assay: Optical density (turbidity, A400 nm) aggregation assay; type: biochemical
T2 construct: Natural β-AP (β-AP1-40) was obtained commercially from Bachem (Torrance, Calif.); purchased Bachem (Torrance, Calif.)
Description: In one assay, β-AP aggregation was measured by determining the increase in turbidity of a solution of natural β-AP over time in the absence or presence of various concentrations of the modulator. Turbidity of the solution was quantitated by determining the optical density at 400 nm (A400 nm) of the solution over time.
The aggregation of natural β-AP in the absence of modulator was determined as follows. β-AP1-40 was dissolved in hexafluoro isopropanol (HFIP; Aldrich Chemical Co., Inc.) at 2 mg/ml. Aliquots of the HFIP solution (87 μl) were transferred to individual 10 mm×75 mm test tubes. A stream of argon gas was passed through each tube to evaporate the HFIP. To the resulting thin film of peptide, dimethylsulfoxide (DMSO; Aldrich Chemical Co., Inc.) (25 μl) was added to dissolve the peptide. A 2 mm×7 mm TEFLON™-coated magnetic stir bar was added to each tube. Buffer (475 μL of 100 mM NaCl, 10 mM sodium phosphate, pH 7.4) was added to the DMSO solution with stirring. The resulting mixture was stirred continuously and the optical density was monitored at 400 nm to observe the formation of insoluble peptide aggregates.
Alternatively, β-AP1-40 was dissolved in DMSO as described above at 1.6 mM (6.9 mg/ml) and aliquots (25 μl) were added to stirred buffer (475 μl), followed by monitoring of absorbance at 400 nm. […]

[6] = target: T3, β-AP1-40 (Homo sapiens, UniProt P05067); assay: Static aggregation assay (SDS-PAGE); type: biochemical
T3 construct: Natural β-AP (β-AP1-40) was obtained commercially from Bachem (Torrance, Calif.); purchased Bachem (Torrance, Calif.)
Description: In a third assay, β-AP aggregation was measured by visualization of the peptide aggregates using SDS-polyacrylamide gel electrophoresis (SDS-PAGE). In this assay, β-AP solutions were allowed to aggregate over a period of time and then aliquots of the reaction were run on a standard SDS-PAGE gel. Typical solution conditions were 200 μM of β-AP1-40 in PBS at 37° C. for 8 days or 200 μM β-AP1-40 in 0.1M sodium acetate at 37° C. for 3 days. The peptide aggregates were visualized by Coomassie blue staining of the gel or, for β-AP solutions that included a biotinylated β-AP modulator, by western blotting of a filter prepared from the gel with a streptavidin-peroxidase probe, followed by a standard peroxidase assay. The β-AP aggregates are identifiable as high molecular weight, low mobility bands on the gel, which are readily distinguishable from the low molecular weight, high mobility β-AP monomer or dimer bands.

T1 sequence (P05067 672-711): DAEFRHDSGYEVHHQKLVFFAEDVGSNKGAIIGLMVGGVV
T3 sequence (P05067 672-711): as above
T2 sequence (P05067 672-711): as above
Aβ peptide, sequence (P05067 672-711 limits assumed): as the sequence (P05067 672-711) above

| Compound | inhibition at 100 % [2] [%] | % Iext'n (percent reduction of thioflavin-T fluorescence) [3] [%] | ΔLag (ratio of lag time with test compound to lag time of control) [1] | also measured |
| --- | --- | --- | --- | --- |
| CC(C)C[C@H](NC(=O)CC[C@@H](C)[C@H]1CC[C@H]2[C@@H]3[C@H](O)C[C@@H]4C[C@H](O)CC[C@]4(C)[C@H]3C[C@H](O)[C@]12C)C(=O)N[C@H](C(=O)N[C@@H](Cc1ccccc1)C(=O)N[C@@H](Cc1ccccc1)C(=O)N[C@@H](C)C(=O)O)C(C)C [PPI-368, cholyl-Aβ17-21] | 100 | 91 | – | % Inhibition of Plateau [1]: 100% |
| CC(C)C[C@H](NC(=O)[C@@H](N)CCCCN)C(=O)N[C@H](C(=O)N[C@@H](Cc1ccccc1)C(=O)N[C@@H](Cc1ccccc1)C(=O)O)C(C)C [PPI-377, Aβ16-20] | 0 | 8 | 1.1 | Fold Increase in Lag Time ([1]; Table IV, 100 mole %): ~ 1 fold |
| CC(C)C[C@H](N)C(=O)N[C@H](C(=O)N[C@@H](Cc1ccccc1)C(=O)N[C@@H](Cc1ccccc1)C(=O)N[C@@H](C)C(=O)O)C(C)C [PPI-386] | 15 | 11 | 1.0 | – |
| OC[C@H]1O[C@@H]2O[C@H]3[C@H](O)[C@@H](O)[C@@H](O[C@H]4[C@H](O)[C@@H](O)[C@@H](O[C@H]5[C@H](O)[C@@H](O)[C@@H](O[C@H]6[C@H](O)[C@@H](O)[C@@H](O[C@H]7[C@H](O)[C@@H](O)[C@@H](O[C@H]8[C@H](O)[C@@H](O)[C@@H](O[C@H]1[C@H](O)[C@H]2O)O[C@@H]8CO)O[C@@H]7CO)O[C@@H]6CO)O[C@@H]5CO)O[C@@H]4CO)O[C@@H]3CO [β-cyclodextrin] | – | – | – | fibril formation in vitro [4]: inhibit fibril formation in vitro |
| N-biotinyl-βAP1-40 | – | – | – | aggregation of natural β-AP1-40 (turbidity, optical density at 400 nm) ([5]; modulator at 1% in the natural β-AP1-40 solution): markedly inhibited; aggregation of natural β-AP1-40 (turbidity, optical density at 400 nm) ([5]; modulator at 5% in the natural β-AP1-40 solution): similarly inhibited aggregation; aggregation of mixture with natural β-AP1-40 (high molecular weight aggregates on SDS-PAGE) ([6]; mixture of natural β-AP1-40 and modulator): reduced amounts of the peptide mixture associated into high molecular weight aggregates; self-aggregation of the modulator (high molecular weight aggregates on SDS-PAGE) ([6]; modulator alone, no natural β-AP): few if any high molecular weight aggregates were observed |
